Experiments:
PTGER2 (EP2) = PTGER2 (EP2) (Homo sapiens (Human), UniProt P43116); assay: hEP2 b-arrestin assay (PathHunter HEK 293 PTGER2 b-arrestin cells); type: cell-based; details: hEP2 b-arrestin assay (values without asterisk)
How it was run: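 HEK293 cells expressing ProLink-tagged EP2 and EA-fused β-arrestin 2 (enzyme fragment complementation) were seeded 24 h, pre-incubated with compound 15 min at 37 °C, then stimulated with 5 μM PGE2 (final) for 120 min.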

PTRGER4 (EP4) = PTRGER4 (EP4) (Homo sapiens (Human), UniProt P35408); assay: hEP4 b-arrestin assay (PathHunter HEK 293 PTGER4 b-arrestin cells); type: cell-based; details: hEP4 b-arrestin assay (values without asterisk)
Sequence of PTRGER4 (EP4) (P35408 whole entry, looked up, the tested form may be a part): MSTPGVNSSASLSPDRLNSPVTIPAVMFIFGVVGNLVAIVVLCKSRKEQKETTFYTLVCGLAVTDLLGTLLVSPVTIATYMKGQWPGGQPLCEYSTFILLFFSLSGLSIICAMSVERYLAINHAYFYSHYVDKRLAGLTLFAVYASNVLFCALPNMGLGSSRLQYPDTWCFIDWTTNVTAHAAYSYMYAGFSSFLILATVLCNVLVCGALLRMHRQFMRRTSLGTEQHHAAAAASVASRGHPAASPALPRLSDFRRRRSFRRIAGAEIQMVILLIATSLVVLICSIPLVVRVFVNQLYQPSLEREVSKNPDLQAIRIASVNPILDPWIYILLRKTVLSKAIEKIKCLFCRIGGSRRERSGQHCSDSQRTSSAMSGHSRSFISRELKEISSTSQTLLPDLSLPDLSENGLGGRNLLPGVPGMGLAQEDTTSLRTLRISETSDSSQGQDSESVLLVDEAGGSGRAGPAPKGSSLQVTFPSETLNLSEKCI
How it was run: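 Stably transfected HEK293 cells carrying EP4–ProLink and β-arrestin 2–EA (β-gal fragment complementation), pre-incubated with compound 15 min at 37 °C, then stimulated with PGE2 (20 nM final) for 120 min at 37 °C. Chemiluminescence read after 1 h detection reagent at room temperature; activity per concentration expressed as percent of DMSO control.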

Sequence of PTGER2 (EP2) (P43116 whole entry, the tested form may be a part): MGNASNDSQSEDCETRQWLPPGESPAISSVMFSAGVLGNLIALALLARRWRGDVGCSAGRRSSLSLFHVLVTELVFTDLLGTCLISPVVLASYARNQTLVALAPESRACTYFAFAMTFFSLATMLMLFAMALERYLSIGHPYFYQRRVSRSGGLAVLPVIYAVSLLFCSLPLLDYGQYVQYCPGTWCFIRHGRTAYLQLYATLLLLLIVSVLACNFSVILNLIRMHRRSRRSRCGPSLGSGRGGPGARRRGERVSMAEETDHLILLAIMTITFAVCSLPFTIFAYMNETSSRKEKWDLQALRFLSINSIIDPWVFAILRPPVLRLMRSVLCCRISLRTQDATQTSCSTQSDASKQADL

IC50 (PTGER2 (EP2)) [nM]	IC50 (PTRGER4 (EP4)) [nM]	SMILES
24	67	COc1ccc(F)c2c1cc(C#N)n2CCNc1cc(-c2ccnc(C(F)(F)F)c2)ncn1 [Example 1007, 7-Fluoro-4-methoxy-1-{2-[6-(2-trifluoromethyl-pyridin-4-yl)-pyrimidin-4-ylamino]-ethyl}-1H-indole-2-carbonitrile]
234	507	COc1ccc(F)c2c1cc(C#N)n2CCNc1cc(-c2cc(C(=O)O)cs2)ncn1 [Example 1008, 5-{6-[2-(2-Cyano-7-fluoro-4-methoxy-indol-1-yl)-ethylamino]-pyrimidin-4-yl}-thiophene-3-carboxylic acid]
20	11	CCOC(=O)c1csc(-c2cc(NCCn3c(C#N)cc4c(OC)ccc(F)c43)ncn2)c1 [Example 1009, 5-{6-[2-(2-Cyano-7-fluoro-4-methoxy-indol-1-yl)-ethylamino]-pyrimidin-4-yl}-thiophene-3-carboxylic acid ethyl ester]
3	7	CNc1cc(-c2cc(NCCn3c(C#N)cc4c(OC)ccc(F)c43)ncn2)ccc1C(=O)O [Example 1010, 4-{6-[2-(2-Cyano-7-fluoro-4-methoxy-indol-1-yl)-ethylamino]-pyrimidin-4-yl}-2-methylamino-benzoic acid]
120	228	COc1ccc(F)c2c1cc(C#N)n2CCNc1cc(-c2cccc(CCC(=O)O)c2)ncn1 [Example 1011, 3-(3-{6-[2-(2-Cyano-7-fluoro-4-methoxy-indol-1-yl)-ethylamino]-pyrimidin-4-yl}-phenyl)-propionic acid]
5	37	CNc1cc(-c2cc(NCCn3c(C)cc4c(C)c(F)cc(F)c43)ncn2)ccc1C(=O)O [Example 1012, 4-{6-[2-(5,7-Difluoro-2,4-dimethyl-indol-1-yl)-ethylamino]-pyrimidin-4-yl}-2-methylamino-benzoic acid]
14	17	COc1ccc(F)c2c1cc(C)n2CCNc1cc(-c2cc(OC(C)C)c(CCC(=O)O)s2)ncn1 [Example 1013, 3-(5-{6-[2-(7-Fluoro-4-methoxy-2-methyl-indol-1-yl)-ethylamino]-pyrimidin-4-yl}-3-isopropoxy-thiophen-2-yl)-propionic acid]
7	351	CCOc1cc(-c2cc(NCCn3c(C)cc4c(OC)ccc(F)c43)ncn2)[nH]c1C(=O)O [Example 1014, 3-Ethoxy-5-{6-[2-(7-fluoro-4-methoxy-2-methyl-indol-1-yl)-ethylamino]-pyrimidin-4-yl}-1H-pyrrole-2-carboxylic acid]
15	18	CCOc1cc(-c2cc(NCCn3c(C)cc4c(OC)ccc(F)c43)ncn2)sc1CCC(=O)O [Example 1015, 3-(3-Ethoxy-5-{6-[2-(7-fluoro-4-methoxy-2-methyl-indol-1-yl)-ethylamino]-pyrimidin-4-yl}-thiophen-2-yl)-propionic acid]
5	5	CCOc1cc(-c2cc(NCCn3c(C)cc4c(OC)ccc(F)c43)ncn2)sc1/C=C/C(=O)O [Example 1016, (E)-3-(3-Ethoxy-5-{6-[2-(7-fluoro-4-methoxy-2-methyl-indol-1-yl)-ethylamino]-pyrimidin-4-yl}-thiophen-2-yl)-acrylic acid]
7	31	CNc1cc(-c2cc(NCCn3c(C)cc4c(OC)cc(F)cc43)ncn2)ccc1C(=O)O [Example 1017, 4-{6-[2-(6-Fluoro-4-methoxy-2-methyl-indol-1-yl)-ethylamino]-pyrimidin-4-yl}-2-methylamino-benzoic acid]
94	69	COc1ccc(F)c2c1cc(C#N)n2CCNc1cc(-c2ccc(C(O)(O)C(F)(F)F)cc2)ncn1 [Example 1018, 7-Fluoro-4-methoxy-1-(2-{6-[4-(2,2,2-trifluoro-1,1-dihydroxy-ethyl)-phenyl]-pyrimidin-4-ylamino}-ethyl)-1H-indole-2-carbonitrile]
485	167	COc1ccc(F)c2c1cc(C#N)n2CCNc1cc(-c2ccc(CCC(=O)O)cc2)ncn1 [Example 1019, 3-(4-{6-[2-(2-Cyano-7-fluoro-4-methoxy-indol-1-yl)-ethylamino]-pyrimidin-4-yl}-phenyl)-propionic acid]
2	29	N#Cc1cc2c(Cl)cccc2n1CCNc1cc(-c2cc(Cl)c(C(=O)O)s2)ncn1 [Example 1020, 3-Chloro-5-{6-[2-(4-chloro-2-cyano-indol-1-yl)-ethylamino]-pyrimidin-4-yl}-thiophene-2-carboxylic acid]
4	18	CCOc1cc(-c2cc(NCCn3c(C)cc4c(OC)ccc(F)c43)ncn2)sc1C(=O)NS(C)(=O)=O [Example 1022, N-(3-Ethoxy-5-{6-[2-(7-fluoro-4-methoxy-2-methyl-indol-1-yl)-ethylamino]-pyrimidin-4-yl}-thiophene-2-carbonyl)-methanesulfonamide]
8	1	CCOc1cc(-c2cc(NCCn3c(C#N)cc4c(OC)ccc(F)c43)ncn2)sc1C(=O)NC [Example 1023, 5-{6-[2-(2-Cyano-7-fluoro-4-methoxy-indol-1-yl)-ethylamino]-pyrimidin-4-yl}-3-ethoxy-thiophene-2-carboxylic acid methylamide]
14	2	CCNC(=O)c1sc(-c2cc(NCCn3c(C#N)cc4c(OC)ccc(F)c43)ncn2)cc1OCC [Example 1024, 5-{6-[2-(2-Cyano-7-fluoro-4-methoxy-indol-1-yl)-ethylamino]-pyrimidin-4-yl}-3-ethoxy-thiophene-2-carboxylic acid ethylamide]
33	6	CCOc1cc(-c2cc(NCCn3c(C#N)cc4c(OC)ccc(F)c43)ncn2)sc1C(=O)N(C)C [Example 1025, 5-{6-[2-(2-Cyano-7-fluoro-4-methoxy-indol-1-yl)-ethylamino]-pyrimidin-4-yl}-3-ethoxy-thiophene-2-carboxylic acid dimethylamide]
21	1	CCOc1cc(-c2cc(NCCn3c(C#N)cc4c(OC)ccc(F)c43)ncn2)sc1C(=O)NCCO [Example 1026, 5-{6-[2-(2-Cyano-7-fluoro-4-methoxy-indol-1-yl)-ethylamino]-pyrimidin-4-yl}-3-ethoxy-thiophene-2-carboxylic acid (2-hydroxy-ethyl)-amide]
39	3	CCOc1cc(-c2cc(NCCn3c(C#N)cc4c(OC)ccc(F)c43)ncn2)sc1C(=O)NC(C)C [Example 1027, 5-{6-[2-(2-Cyano-7-fluoro-4-methoxy-indol-1-yl)-ethylamino]-pyrimidin-4-yl}-3-ethoxy-thiophene-2-carboxylic acid isopropylamide]
9	2	CCOc1cc(-c2cc(NCCn3c(C#N)cc4c(OC)ccc(F)c43)ncn2)sc1C(=O)NCCOC [Example 1028, 5-{6-[2-(2-Cyano-7-fluoro-4-methoxy-indol-1-yl)-ethylamino]-pyrimidin-4-yl}-3-ethoxy-thiophene-2-carboxylic acid (2-methoxy-ethyl)-amide]
4	6	CCOc1cc(-c2cc(NCCn3c(C#N)cc4c(OC)ccc(F)c43)ncn2)sc1C(=O)NS(N)(=O)=O [Example 1029, 5-(6-((2-(2-Cyano-7-fluoro-4-methoxy-1H-indol-1-yl)ethyl)amino)pyrimidin-4-yl)-3-ethoxy-N-sulfamoylthiophene-2-carboxamide]
15	3	CCOc1cc(-c2cc(NCCn3c(C#N)cc4c(OC)ccc(F)c43)ncn2)sc1C(=O)NO [Example 1030, 5-{6-[2-(2-Cyano-7-fluoro-4-methoxy-indol-1-yl)-ethylamino]-pyrimidin-4-yl}-3-ethoxy-thiophene-2-carboxylic acid hydroxyamide]
3	19	CCOc1cc(-c2cc(NCCn3c(C)cc4c(OC)ccc(F)c43)ncn2)sc1CO [Example 1031, (3-Ethoxy-5-{6-[2-(7-fluoro-4-methoxy-2-methyl-indol-1-yl)-ethylamino]-pyrimidin-4-yl}-thiophen-2-yl)methanol]
10	14	COc1ccc(F)c2c1cc(C)n2CCNc1cc(-c2nc(OC(C)C)c(C(=O)O)s2)ncn1 [Example 1032, 2-{6-[2-(7-Fluoro-4-methoxy-2-methyl-indol-1-yl)-ethylamino]-pyrimidin-4-yl}-4-isopropoxy-thiazole-5-carboxylic acid]
7	37	COc1nc(-c2cc(NCCn3c(C)cc4c(OC)ccc(F)c43)ncn2)sc1C(=O)O [Example 1033, 2-{6-[2-(7-Fluoro-4-methoxy-2-methyl-indol-1-yl)-ethylamino]-pyrimidin-4-yl}-4-methoxy-thiazole-5-carboxylic acid]
5	17	CCOc1nc(-c2cc(NCCn3c(C)cc4c(OC)ccc(F)c43)ncn2)sc1C(=O)O [Example 1034, 4-Ethoxy-2-{6-[2-(7-fluoro-4-methoxy-2-methyl-indol-1-yl)-ethylamino]-pyrimidin-4-yl}-thiazole-5-carboxylic acid]
2	29	CCCOc1nc(-c2cc(NCCn3c(C)cc4c(OC)ccc(F)c43)ncn2)sc1C(=O)O [Example 1035, 2-{6-[2-(7-Fluoro-4-methoxy-2-methyl-indol-1-yl)-ethylamino]-pyrimidin-4-yl}-4-propoxy-thiazole-5-carboxylic acid]
24	20	COc1ccc(F)c2c1cc(C)n2CCNc1cc(-c2nc(CC(C)C)c(C(=O)O)s2)ncn1 [Example 1036, 2-{6-[2-(7-Fluoro-4-methoxy-2-methyl-indol-1-yl)-ethylamino]-pyrimidin-4-yl}-4-isobutyl-thiazole-5-carboxylic acid]

From US12011444B2, “N-substituted indole derivatives as PGE2 receptor modulators” (Idorsia Pharmaceuticals Ltd, priority 2015, dated 2024)
